# Test results taken from PubChem BioAssay (NCI).
# “And” between values parts separate entries of the source, which are not always exact repeats. Equal entries are not always repeated.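 Grown in 96-well plates, cells were treated for 48 hours with each compound at five concentrations. Insufficient inhibition: endpoint recorded as highest concentration tested. At the GI50, growth is halved. TGI is the concentration that stops growth completely.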
# Experiments:
# Experiment in all cases: growth of human tumour cells (NCI), 48 h
# OVCAR-3 ovarian = test system: OVCAR-3 ovarian
# UACC-257 melanoma = test system: UACC-257 melanoma
# NCI-H226 lung = test system: NCI-H226 lung
# MDA-N = test system: MDA-N
# SF-295 CNS = test system: SF-295 CNS
# SK-MEL-28 melanoma = test system: SK-MEL-28 melanoma
# SNB-19 CNS = test system: SNB-19 CNS
# RPMI-8226 leukemia = test system: RPMI-8226 leukemia
# LOX IMVI melanoma = test system: LOX IMVI melanoma
# K-562 leukemia = test system: K-562 leukemia
# CAKI-1 renal = test system: CAKI-1 renal
# U251 CNS = test system: U251 CNS
# SR leukemia = test system: SR leukemia
# SK-MEL-2 melanoma = test system: SK-MEL-2 melanoma
# SN12C renal = test system: SN12C renal
# MOLT-4 leukemia = test system: MOLT-4 leukemia
# HL-60(TB) leukemia = test system: HL-60(TB) leukemia
# HCT-116 colon = test system: HCT-116 colon
# SK-OV-3 ovarian = test system: SK-OV-3 ovarian
# HS 578T breast = test system: HS 578T breast
# CCRF-CEM leukemia = test system: CCRF-CEM leukemia
# A498 renal = test system: A498 renal
# MCF7 breast = test system: MCF7 breast
# DU-145 prostate = test system: DU-145 prostate
# NCI-H522 lung = test system: NCI-H522 lung
# UO-31 renal = test system: UO-31 renal
# NCI-H460 lung = test system: NCI-H460 lung
# T-47D breast = test system: T-47D breast
# ACHN renal = test system: ACHN renal
# SK-MEL-5 melanoma = test system: SK-MEL-5 melanoma
# IGROV1 ovarian = test system: IGROV1 ovarian
# UACC-62 melanoma = test system: UACC-62 melanoma
# MALME-3M melanoma = test system: MALME-3M melanoma
# KM12 colon = test system: KM12 colon
# A549 NSCLC = test system: A549 NSCLC
# COLO 205 colon = test system: COLO 205 colon
# HT29 colon = test system: HT29 colon
# NCI/ADR-RES ovarian = test system: NCI/ADR-RES ovarian
# M14 melanoma = test system: M14 melanoma
# SF-539 CNS = test system: SF-539 CNS
# RXF 393 renal = test system: RXF 393 renal
# OVCAR-4 ovarian = test system: OVCAR-4 ovarian
# HOP-62 NSCLC = test system: HOP-62 NSCLC
# SNB-75 CNS = test system: SNB-75 CNS
# MDA-MB-435 = test system: MDA-MB-435
# PC-3 prostate = test system: PC-3 prostate
# HCT-15 colon = test system: HCT-15 colon
# SW-620 colon = test system: SW-620 colon
# NCI-H23 lung = test system: NCI-H23 lung
# MDA-MB-231 breast = test system: MDA-MB-231 breast
# SF-268 CNS = test system: SF-268 CNS
# EKVX NSCLC = test system: EKVX NSCLC
# HOP-92 NSCLC = test system: HOP-92 NSCLC
# TK-10 renal = test system: TK-10 renal
# 786-0 renal = test system: 786-0 renal
# BT-549 breast = test system: BT-549 breast
# OVCAR-8 ovarian = test system: OVCAR-8 ovarian
# OVCAR-5 ovarian = test system: OVCAR-5 ovarian
# KM20L2 colon = test system: KM20L2 colon
# DLD-1 colon = test system: DLD-1 colon
# DMS 114 small cell lung = test system: DMS 114 small cell lung
# LXFL 529 NSCLC = test system: LXFL 529 NSCLC
# HCC-2998 colon = test system: HCC-2998 colon
structure (smiles),measurement,setting,value
O=C(OCCC12CC3CC(CC(C3)C1)C2)c1ccc(NCc2cc(O)ccc2O)cc1,TGI,OVCAR-3 ovarian,0.626 µM
same,TGI,UACC-257 melanoma,2.38 µM
same,TGI,NCI-H226 lung,8.62 µM
same,TGI,MDA-N,3.38 µM
same,TGI,SF-295 CNS,5.25 µM
same,TGI,SK-MEL-28 melanoma,2.24 µM
same,TGI,SNB-19 CNS,3.23 µM
same,TGI,RPMI-8226 leukemia,0.666 µM
same,TGI,LOX IMVI melanoma,4.37 µM
same,TGI,K-562 leukemia,10.6 µM
same,TGI,CAKI-1 renal,1.11 µM
same,TGI,U251 CNS,2.95 µM
same,TGI,SR leukemia,4.43 µM
same,TGI,SK-MEL-2 melanoma,2.83 µM
same,TGI,SN12C renal,11.2 µM
same,TGI,MOLT-4 leukemia,10.3 µM
same,TGI,HL-60(TB) leukemia,0.853 µM
same,TGI,HCT-116 colon,5.68 µM
same,TGI,SK-OV-3 ovarian,13.1 µM
same,TGI,HS 578T breast,0.542 µM
same,TGI,CCRF-CEM leukemia,15.9 µM
same,TGI,A498 renal,4.83 µM
same,TGI,MCF7 breast,> 100 µM
same,TGI,DU-145 prostate,13.7 µM
same,TGI,NCI-H522 lung,0.35 µM
same,TGI,UO-31 renal,1.58 µM
same,TGI,NCI-H460 lung,> 100 µM
same,TGI,T-47D breast,0.584 µM
same,TGI,ACHN renal,5.18 µM
same,TGI,SK-MEL-5 melanoma,2.51 µM
same,TGI,IGROV1 ovarian,0.277 µM
same,TGI,UACC-62 melanoma,3.61 µM
same,TGI,MALME-3M melanoma,3.81 µM
same,TGI,KM12 colon,3.43 µM
same,TGI,A549 NSCLC,15.7 µM
same,TGI,COLO 205 colon,1.2 µM
same,TGI,HT29 colon,10.6 µM
same,TGI,NCI/ADR-RES ovarian,11.1 µM
same,TGI,M14 melanoma,3.37 µM
same,TGI,SF-539 CNS,2.08 µM
same,TGI,RXF 393 renal,4.9 µM
same,TGI,OVCAR-4 ovarian,3.17 µM
same,TGI,HOP-62 NSCLC,13.4 µM
same,TGI,SNB-75 CNS,2.99 µM
same,TGI,MDA-MB-435,3.84 µM
same,TGI,PC-3 prostate,14.5 µM
same,TGI,HCT-15 colon,3.53 µM
same,TGI,SW-620 colon,6.56 µM
same,TGI,NCI-H23 lung,3.28 µM
same,TGI,MDA-MB-231 breast,5.31 µM
same,TGI,SF-268 CNS,12.7 µM
same,TGI,EKVX NSCLC,4.88 µM
same,TGI,HOP-92 NSCLC,16.8 µM
same,TGI,TK-10 renal,4.65 µM
same,TGI,786-0 renal,4.73 µM
same,TGI,BT-549 breast,0.684 µM
c1ccc(C(CCN2CC3CCC(CC3)C2)c2ccccc2)cc1,TGI,OVCAR-3 ovarian,44.3 µM
same,TGI,UACC-257 melanoma,31.9 µM
same,TGI,NCI-H226 lung,35.6 µM
same,TGI,MDA-N,58.9 µM
same,TGI,SF-295 CNS,55 µM
same,TGI,SK-MEL-28 melanoma,> 100 µM
same,TGI,SNB-19 CNS,> 100 µM
same,TGI,RPMI-8226 leukemia,36.7 µM
same,TGI,LOX IMVI melanoma,30.6 µM
same,TGI,K-562 leukemia,47.7 µM
same,TGI,CAKI-1 renal,> 100 µM
same,TGI,U251 CNS,35.1 µM
same,TGI,SR leukemia,46.4 µM
same,TGI,SK-MEL-2 melanoma,37.8 µM
same,TGI,SN12C renal,84.7 µM
same,TGI,MOLT-4 leukemia,42.6 µM
same,TGI,HCT-116 colon,63.8 µM
same,TGI,HS 578T breast,50.5 µM
same,TGI,A498 renal,34.1 µM
same,TGI,MCF7 breast,29 µM
same,TGI,DU-145 prostate,> 100 µM
same,TGI,NCI-H522 lung,31.9 µM
same,TGI,OVCAR-8 ovarian,98.3 µM
same,TGI,UO-31 renal,45.7 µM
same,TGI,NCI-H460 lung,28.9 µM
same,TGI,T-47D breast,49.1 µM
same,TGI,ACHN renal,57.8 µM
same,TGI,SK-MEL-5 melanoma,30.1 µM
same,TGI,IGROV1 ovarian,> 100 µM
same,TGI,UACC-62 melanoma,35.3 µM
same,TGI,MALME-3M melanoma,29.9 µM
same,TGI,KM12 colon,87.4 µM
same,TGI,A549 NSCLC,> 100 µM
same,TGI,COLO 205 colon,25.1 µM
same,TGI,HT29 colon,48.4 µM
same,TGI,NCI/ADR-RES ovarian,58.3 µM
same,TGI,M14 melanoma,27.3 µM
same,TGI,SF-539 CNS,29.5 µM
same,TGI,RXF 393 renal,37.9 µM
same,TGI,OVCAR-4 ovarian,> 100 µM
same,TGI,HOP-62 NSCLC,70.5 µM
same,TGI,SNB-75 CNS,85.9 µM
same,TGI,MDA-MB-435,65.4 µM
same,TGI,PC-3 prostate,> 100 µM
same,TGI,HCT-15 colon,45.4 µM
same,TGI,SW-620 colon,> 100 µM
same,TGI,NCI-H23 lung,36.1 µM
same,TGI,MDA-MB-231 breast,38.3 µM
same,TGI,SF-268 CNS,69.2 µM
same,TGI,EKVX NSCLC,> 100 µM
same,TGI,HOP-92 NSCLC,64.4 µM
same,TGI,TK-10 renal,72.7 µM
same,TGI,786-0 renal,36.1 µM
same,TGI,OVCAR-5 ovarian,56.8 µM
same,TGI,BT-549 breast,> 100 µM
CC1C(=O)C(C)C(c2ccccc2)N(C)C1c1ccccc1 (stereo unspecified),GI50,SF-295 CNS,28 µM and 87.4 µM
same,TGI,SF-295 CNS,93.9 µM and > 100 µM
same,TGI,RPMI-8226 leukemia,54.3 µM
same,GI50,LOX IMVI melanoma,15.8 µM and 86.2 µM
same,TGI,LOX IMVI melanoma,31.4 µM and > 100 µM
same,GI50,K-562 leukemia,33.2 µM and 73.4 µM
same,TGI,K-562 leukemia,> 100 µM
same,TGI,SR leukemia,48.2 µM and > 100 µM
same,TGI,MOLT-4 leukemia,57.7 µM and > 100 µM
same,TGI,HL-60(TB) leukemia,45.5 µM and > 100 µM
same,GI50,HCT-116 colon,15.7 µM and 40.3 µM
same,TGI,HCT-116 colon,30.8 µM and > 100 µM
same,GI50,NCI-H522 lung,21.6 µM and 63 µM
same,TGI,NCI-H522 lung,52.5 µM and > 100 µM
same,GI50,KM12 colon,23.7 µM and 90.3 µM
same,TGI,KM12 colon,67.7 µM and > 100 µM
same,GI50,KM20L2 colon,32.8 µM and 85.8 µM
same,TGI,KM20L2 colon,> 100 µM
same,TGI,HT29 colon,91.4 µM and > 100 µM
same,GI50,DLD-1 colon,26.2 µM and 85.4 µM
same,TGI,DLD-1 colon,> 100 µM
same,GI50,HCT-15 colon,23.6 µM and 61.1 µM
same,TGI,HCT-15 colon,81.8 µM and > 100 µM
same,GI50,DMS 114 small cell lung,30 µM and 75.1 µM
same,TGI,DMS 114 small cell lung,99.7 µM and > 100 µM
same,TGI,OVCAR-5 ovarian,> 100 µM
same,GI50,LXFL 529 NSCLC,42.6 µM and 97.9 µM
same,TGI,LXFL 529 NSCLC,> 100 µM
CC(=O)Oc1ccc(/C=C/C(=O)O[C@H]2CCCC[C@@H]2OC(=O)/C=C/c2ccc(OC(C)=O)c(OC(C)=O)c2)cc1OC(C)=O,TGI,OVCAR-3 ovarian,95.7 µM
same,TGI,UACC-257 melanoma,52.6 µM
same,TGI,MDA-N,27.5 µM
same,TGI,SF-295 CNS,19 µM
same,TGI,SK-MEL-28 melanoma,33.1 µM
same,TGI,SNB-19 CNS,27.6 µM
same,TGI,RPMI-8226 leukemia,31.9 µM
same,TGI,LOX IMVI melanoma,15.4 µM
same,TGI,K-562 leukemia,> 100 µM
same,TGI,CAKI-1 renal,> 100 µM
same,TGI,U251 CNS,> 100 µM
same,TGI,SR leukemia,> 100 µM
same,TGI,SK-MEL-2 melanoma,53.1 µM
same,TGI,SN12C renal,29.8 µM
same,TGI,MOLT-4 leukemia,34.8 µM
same,TGI,HCT-116 colon,20.3 µM
same,TGI,SK-OV-3 ovarian,27.4 µM
same,TGI,HS 578T breast,> 100 µM
same,TGI,CCRF-CEM leukemia,16.9 µM
same,TGI,A498 renal,38.2 µM
same,TGI,MCF7 breast,42.9 µM
same,TGI,DU-145 prostate,33.7 µM
same,TGI,NCI-H522 lung,22.3 µM
same,TGI,OVCAR-8 ovarian,61.7 µM
same,TGI,UO-31 renal,20.6 µM
same,TGI,NCI-H460 lung,> 100 µM
same,TGI,T-47D breast,47.1 µM
same,TGI,ACHN renal,33.4 µM
same,TGI,SK-MEL-5 melanoma,15.1 µM
same,TGI,IGROV1 ovarian,64.9 µM
same,TGI,UACC-62 melanoma,17.7 µM
same,TGI,MALME-3M melanoma,37.1 µM
same,TGI,KM12 colon,60.2 µM
same,TGI,HCC-2998 colon,32.6 µM
same,TGI,A549 NSCLC,> 100 µM
same,TGI,COLO 205 colon,46.6 µM
same,TGI,HT29 colon,> 100 µM
same,TGI,NCI/ADR-RES ovarian,> 100 µM
same,TGI,M14 melanoma,25.6 µM
same,TGI,SF-539 CNS,> 100 µM
same,TGI,RXF 393 renal,27.7 µM
same,TGI,OVCAR-4 ovarian,> 100 µM
same,TGI,HOP-62 NSCLC,32.2 µM
same,TGI,SNB-75 CNS,58.3 µM
same,TGI,MDA-MB-435,32.7 µM
same,TGI,PC-3 prostate,> 100 µM
same,TGI,HCT-15 colon,31.2 µM
same,TGI,SW-620 colon,10.6 µM
same,TGI,NCI-H23 lung,27 µM
same,TGI,MDA-MB-231 breast,> 100 µM
same,TGI,SF-268 CNS,32.6 µM
same,TGI,EKVX NSCLC,44 µM
same,TGI,HOP-92 NSCLC,33.7 µM
same,TGI,TK-10 renal,63.2 µM
same,TGI,786-0 renal,36 µM
same,TGI,OVCAR-5 ovarian,28.4 µM
same,TGI,BT-549 breast,36.9 µM
